In ChEMBL document CHEMBL4673289, “Design, synthesis and biological evaluation of imidazolopyridone derivatives as novel BRD4 inhibitors” (Bioorg Med Chem, 2021):
Activity calls are given as the source filed them. No cut-off for these calls is given here.

Tests used:
BXPC-3 [1] = test: Anticlonogenic activity against human BXPC-3 cells assessed as reduction in colony formation at 0.25 umol/L incubated for 10 days by crystal violet staining based assay; format: functional, cell-based; details: dose 0.25 µmol/L, time 10.0 day
BXPC-3 [2] = test: Inhibition of c-Myc protein expression in human BXPC-3 cells at 4 to 16 uM measured after 48 hrs by Western blot analysis; format: functional, cell-based; details: dose 4-16 µM
BXPC-3 [3] = test: Induction of apoptosis in human BXPC-3 cells assessed as early apoptotic cells at 16 uM measured after 48 hrs by AnnexinV/propidium iodide staining based flow cytometry (reference value: 1.02 %); format: functional
Panc02 [4] = test: Induction of apoptosis in mouse Panc02 cells allografted in BALB/c mouse assessed as condensed chromatin at 50 mg/kg, ip administered every day measured after 20 days by hematoxylin and eosin staining based assay; format: functional, organism-based; details: time 20.0 day
BXPC-3 [5] = test: Induction of apoptosis in human BXPC-3 cells assessed as late apoptotic cells at 8 uM measured after 48 hrs by AnnexinV/propidium iodide staining based flow cytometry (reference value: 5.15 %); format: functional
BXPC-3 [6] = test: Inhibition of BRD4 protein expression in human BXPC-3 cells at 4 to 16 uM measured after 48 hrs by Western blot analysis; format: functional, cell-based; details: dose 4-16 µM
[7] = Toxicity in BALB/c mouse allografted with mouse Panc02 cells assessed as effect on body weight at 50 mg/kg, ip administered every day measured after 19 days; format: organism-based; details: in vivo, 456 h, time 19 day
BXPC-3 [8] = test: Induction of apoptosis in human BXPC-3 cells assessed as increase in cytochrome C expression at 4 to 16 uM measured after 48 hrs by Western blot analysis; format: functional, cell-based; details: dose 4-16 µM
BXPC-3 [9] = test: Induction of apoptosis in human BXPC-3 cells assessed as late apoptotic cells at 4 uM measured after 48 hrs by AnnexinV/propidium iodide staining based flow cytometry (reference value: 5.15 %); format: functional
BXPC-3 [10] = test: Cell cycle arrest in human BXPC-3 cells assessed as accumulation at G1/S phase by measuring upregulation of Rb at 4 to 16 uM measured after 48 hrs by Western blot analysis; format: functional, cell-based; details: dose 4-16 µM
PANC-1 = test: Antiproliferative activity against human PANC-1 cells assessed as cell growth inhibition at 2 uM measured after 48 to 72 hrs by MTT assay relative to control; format: functional; details: time 48-72 hrs, read-out: GI
BXPC-3 [11] = test: Induction of apoptosis in human BXPC-3 cells assessed as increase in cleaved PARP expression at 4 to 16 uM measured after 48 hrs by Western blot analysis; format: functional, cell-based; details: dose 4-16 µM
BXPC-3 [12] = test: Cell cycle arrest in human BXPC-3 cells assessed as accumulation at G0/G1 phase measured after 48 hrs by AnnexinV-FITC/propidium iodide staining based flow cytometry; format: functional; details: dose 4-16 µM
BXPC-3 [13] = test: Induction of apoptosis in human BXPC-3 cells assessed as upregulation of Bax at 4 to 16 uM measured after 48 hrs by Western blot analysis; format: functional, cell-based; details: dose 4-16 µM
Mus musculus [14] = test: Decrease in c-Myc expression in BALB/c mouse allografted with mouse Panc02 cells […] at 50 mg/kg, ip administered every day in combination with gemcitabine at 100 mg/kg measured after 20 days by immunohistochemical analysis; format: functional, organism-based; details: time 20.0 day
BXPC-3 [15] = test: Induction of apoptosis in human BXPC-3 cells assessed as late apoptotic cells at 16 uM measured after 48 hrs by AnnexinV/propidium iodide staining based flow cytometry (reference value: 1.02 %); format: functional
BXPC-3 [16] = test: Induction of apoptosis in human BXPC-3 cells assessed as upregulation of caspase 3 at 4 to 16 uM measured after 48 hrs by Western blot analysis; format: functional, cell-based; details: dose 4-16 µM
BXPC-3 [17] = test: Cell cycle arrest in human BXPC-3 cells assessed as acumulation at G0/G1 phase by measuring downregulation of CyclinD1 at 4 to 16 uM measured after 48 hrs by Western blot analysis; format: functional, cell-based; details: dose 4-16 µM
BXPC-3 [18] = test: Cell cycle arrest in human BXPC-3 cells assessed as accumulation at sub-G1 phase at 8 to 16 uM measured after 48 hrs by AnnexinV-FITC/propidium iodide staining based flow cytometry; format: functional; details: dose 8-16 µM
Mus musculus [19] = test: Decrease in c-Myc expression in BALB/c mouse allografted with mouse Panc02 cells […] at 50 mg/kg, ip administered every day measured after 20 days by immunohistochemical analysis; format: functional, organism-based; details: time 20.0 day
BXPC-3 [20] = test: Induction of morphological changes in human BXPC-3 cells assessed as assessed as increase in apoptotic cells at 8 uM measured after 48 hrs by light microscopic analysis; format: functional, cell-based
Mus musculus [21] = test: Downregulation of Ki67 expression in BALB/c mouse allografted with mouse Panc02 cells […] at 50 mg/kg, ip administered every day measured after 20 days by immunohistochemical analysis; format: functional, organism-based; details: time 20.0 day
Panc02 [22] = test: Antitumor activity against mouse Panc02 allografted in BALB/c mouse assessed as reduction in tumor weight at 50 mg/kg, ip administered every day for 20 days in combination with gemcitabine at 100 mg/kg relative to control; format: functional; details: 480 h, time 20 day, read-out: TGI
BXPC-3 [23] = test: Cell cycle arrest in human BXPC-3 cells assessed as acumulation at G0/G1 phase by measuring upregulation of p27 at 4 to 16 uM measured after 48 hrs by Western blot analysis; format: functional, cell-based; details: dose 4-16 µM
[24] = target: T1, Bromodomain-containing protein 4 (Homo sapiens, UniProt O60885); test: Inhibition of BRD4 (unknown origin) at 1 uM preincubated for 15 mins followed by substrate addition and measured after 1 hr by AlphaScreen assay relative to control; details: time 75.0 min
Panc02 [25] = test: Antitumor activity against mouse Panc02 allografted in BALB/c mouse assessed as reduction in tumor weight at 50 mg/kg, ip administered every day for 20 days relative to control; format: functional; details: 480 h, time 20 day, read-out: TGI
[26] = target: T1, Bromodomain-containing protein 4; test: Inhibition of BRD4 in human BXPC-3 cells assessed as blocking of BRD4-pTEFB interaction; format: cell-based
BXPC-3 [27] = test: Cell cycle arrest in human BXPC-3 cells assessed as acumulation at G0/G1 phase by measuring downregulation of CDK2 at 4 to 16 uM measured after 48 hrs by Western blot analysis; format: functional, cell-based; details: dose 4-16 µM
BXPC-3 [28] = test: Cell cycle arrest in human BXPC-3 cells assessed as decrease in cell population at G2/M phase at 4 to 16 uM measured after 48 hrs by AnnexinV-FITC/propidium iodide staining based flow cytometry; format: functional; details: dose 4-16 µM
BXPC-3 [29] = test: Induction of apoptosis in human BXPC-3 cells assessed as activation of caspase 3 at 4 to 16 uM measured after 48 hrs by Western blot analysis; format: functional, cell-based; details: dose 4-16 µM
Panc02 [30] = test: Induction of apoptosis in mouse Panc02 cells allografted in BALB/c mouse assessed as condensed chromatin at 50 mg/kg, ip administered every day in combination with gemcitabine at 100 mg/kg measured after 20 days by hematoxylin and eosin staining based assay; format: functional, organism-based; details: time 20.0 day
BXPC-3 [31] = test: Induction of apoptosis in human BXPC-3 cells assessed as early apoptotic cells at 8 uM measured after 48 hrs by AnnexinV/propidium iodide staining based flow cytometry (reference value: 1.02 %); format: functional
Mus musculus [32] = test: Downregulation of Ki67 expression in BALB/c mouse allografted with mouse Panc02 cells […] at 50 mg/kg, ip administered every day in combination with gemcitabine at 100 mg/kg measured after 20 days by immunohistochemical analysis; format: functional, organism-based; details: time 20.0 day

**Q.** Which Activity (BXPC-3 [1]) does the source give for `CCS(=O)(=O)Nc1ccc(Oc2ccccc2F)c(-c2cn(C)c(=O)c3cncn23)c1` here?
**A.** The Activity was “Active”.

**Q.** And the inhibition (BXPC-3 [2])?
**A.** The inhibition was “Active”.

**Q.** What about the Activity (BXPC-3 [3]) of the same molecule?
**A.** The Activity was 2.35%.

**Q.** And the Activity (Panc02 [4])?
**A.** The Activity was “Active”.

**Q.** What about the Activity (BXPC-3 [5]) of the same molecule?
**A.** The Activity was 12.36%.

**Q.** And the inhibition (BXPC-3 [6])?
**A.** Its inhibition is “Active”.

**Q.** What about the Activity [7] of the same molecule?
**A.** The Activity was “Non-Toxic”.

**Q.** And the Activity (BXPC-3 [8])?
**A.** Its Activity is “Active”.

**Q.** And the Activity (BXPC-3 [9])?
**A.** Its Activity is 8.59%.

**Q.** And the Activity (BXPC-3 [10])?
**A.** Its Activity is “Active”.

**Q.** And the inhibition of growth at 2 µM (PANC-1)?
**A.** The inhibition of growth at 2 µM was 16.5%.

**Q.** And the Activity (BXPC-3 [11])?
**A.** Its Activity is “Active”.

**Q.** And the Activity (BXPC-3 [12])?
**A.** Its Activity is “Dose-dependent effect”.

**Q.** And the Activity (BXPC-3 [13])?
**A.** Its Activity is “Active”.

**Q.** What about the Activity (Mus musculus [14]) of the same molecule?
**A.** Its Activity is “Active”.

**Q.** And the Activity (BXPC-3 [15])?
**A.** The Activity was 19.21%.

**Q.** What about the Activity (BXPC-3 [16]) of the same molecule?
**A.** The Activity was “Active”.

**Q.** And the Activity (BXPC-3 [17])?
**A.** The Activity was “Active”.

**Q.** And the Activity (BXPC-3 [18])?
**A.** Its Activity is “Active”.

**Q.** What about the Activity (Mus musculus [19]) of the same molecule?
**A.** The Activity was “Active”.

**Q.** What about the Activity (BXPC-3 [20]) of the same molecule?
**A.** Its Activity is “Active”.

**Q.** What about the Activity (Mus musculus [21]) of the same molecule?
**A.** The Activity was “Active”.

**Q.** What about the inhibition in vivo at 50 mg/kg (Panc02 [22]) of the same molecule?
**A.** The inhibition in vivo at 50 mg/kg was 85%.

**Q.** What about the Activity (BXPC-3 [23]) of the same molecule?
**A.** The Activity was “Active”.

**Q.** And the inhibition [24]?
**A.** Its inhibition is 100%.

**Q.** What about the inhibition in vivo at 50 mg/kg (Panc02 [25]) of the same molecule?
**A.** Its inhibition in vivo at 50 mg/kg is 79%.

**Q.** What about the inhibition [26] of the same molecule?
**A.** Its inhibition is “Active”.

**Q.** What about the Activity (BXPC-3 [27]) of the same molecule?
**A.** The Activity was “Active”.

**Q.** What about the Activity (BXPC-3 [28]) of the same molecule?
**A.** The Activity was “Active”.

**Q.** And the Activity (BXPC-3 [29])?
**A.** Its Activity is “Active”.

**Q.** What about the Activity (Panc02 [30]) of the same molecule?
**A.** The Activity was “Active”.

**Q.** And the Activity (BXPC-3 [31])?
**A.** The Activity was 1.61%.

**Q.** And the Activity (Mus musculus [32])?
**A.** The Activity was “Active”.
